Measurements published in patent US11739098B2 (BRISTOL-MYERS SQUIBB COMPANY, priority 2017, dated 2023).

Legend:
Format in all cases: cell-based
human TLR7 = biological target: T1, human TLR7 (Homo sapiens, UniProt Q9NYK1); test: TLR7 inhibition reporter assay (HEK-Blue cells, SEAP reporter, gardiquimod stimulation); settings: HEK-Blue cells overexpressing human TLR7, SEAP reporter, gardiquimod 7.5 μM
T1 construct: host or cells: HEK-Blue cells (HEK293-derived reporter line)
T1 sequence (Q9NYK1 27-1049): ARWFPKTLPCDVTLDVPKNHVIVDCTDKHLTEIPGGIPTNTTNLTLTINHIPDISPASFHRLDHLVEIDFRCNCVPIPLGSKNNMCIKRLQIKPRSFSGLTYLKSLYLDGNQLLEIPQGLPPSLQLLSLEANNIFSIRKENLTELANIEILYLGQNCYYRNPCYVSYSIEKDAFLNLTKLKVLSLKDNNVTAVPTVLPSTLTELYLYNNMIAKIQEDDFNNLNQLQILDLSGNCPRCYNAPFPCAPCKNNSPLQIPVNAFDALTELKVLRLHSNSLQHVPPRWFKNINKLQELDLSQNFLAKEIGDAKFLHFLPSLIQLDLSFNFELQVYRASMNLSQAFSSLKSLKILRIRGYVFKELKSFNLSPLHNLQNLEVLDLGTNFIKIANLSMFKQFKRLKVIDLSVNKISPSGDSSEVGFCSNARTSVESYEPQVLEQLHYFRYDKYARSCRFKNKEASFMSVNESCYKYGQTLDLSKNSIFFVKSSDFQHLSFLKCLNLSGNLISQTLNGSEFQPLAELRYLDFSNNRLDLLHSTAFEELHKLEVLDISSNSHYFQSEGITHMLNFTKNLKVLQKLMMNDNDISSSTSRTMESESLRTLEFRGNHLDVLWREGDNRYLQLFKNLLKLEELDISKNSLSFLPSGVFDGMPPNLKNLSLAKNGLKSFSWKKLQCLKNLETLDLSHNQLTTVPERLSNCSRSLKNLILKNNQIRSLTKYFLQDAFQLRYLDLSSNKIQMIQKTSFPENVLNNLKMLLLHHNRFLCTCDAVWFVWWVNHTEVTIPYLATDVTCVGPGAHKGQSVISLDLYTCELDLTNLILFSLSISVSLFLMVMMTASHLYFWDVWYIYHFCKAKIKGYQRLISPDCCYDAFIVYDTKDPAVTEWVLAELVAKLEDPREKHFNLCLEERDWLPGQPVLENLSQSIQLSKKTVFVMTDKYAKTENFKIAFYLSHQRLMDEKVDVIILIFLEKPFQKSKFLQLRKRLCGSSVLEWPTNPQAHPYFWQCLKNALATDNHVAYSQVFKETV
Procedure, shortened: (§1)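 Cells seeded per well (15000 TLR7, 20,000 TLR8, 25,000 TLR9); compound added over 0.05 nM–50 μM for 30 min at room temperature; agonist added (TLR7 gardiquimod 7.5 μM, TLR8 R848 15.9 μM, TLR9 ODN2006 5 nM); 22 h at 37 °C; SEAP measured; percent inhibition calculated.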

human TLR8 = biological target: T2, human TLR8 (Homo sapiens, UniProt Q9NR97); test: TLR8 inhibition reporter assay (HEK-Blue cells, SEAP reporter, R848 stimulation); settings: HEK-Blue cells overexpressing human TLR8, SEAP reporter, R848 15.9 μM
T2 construct: host or cells: HEK-Blue cells (HEK293-derived reporter line)
T2 sequence (Q9NR97 27-1041): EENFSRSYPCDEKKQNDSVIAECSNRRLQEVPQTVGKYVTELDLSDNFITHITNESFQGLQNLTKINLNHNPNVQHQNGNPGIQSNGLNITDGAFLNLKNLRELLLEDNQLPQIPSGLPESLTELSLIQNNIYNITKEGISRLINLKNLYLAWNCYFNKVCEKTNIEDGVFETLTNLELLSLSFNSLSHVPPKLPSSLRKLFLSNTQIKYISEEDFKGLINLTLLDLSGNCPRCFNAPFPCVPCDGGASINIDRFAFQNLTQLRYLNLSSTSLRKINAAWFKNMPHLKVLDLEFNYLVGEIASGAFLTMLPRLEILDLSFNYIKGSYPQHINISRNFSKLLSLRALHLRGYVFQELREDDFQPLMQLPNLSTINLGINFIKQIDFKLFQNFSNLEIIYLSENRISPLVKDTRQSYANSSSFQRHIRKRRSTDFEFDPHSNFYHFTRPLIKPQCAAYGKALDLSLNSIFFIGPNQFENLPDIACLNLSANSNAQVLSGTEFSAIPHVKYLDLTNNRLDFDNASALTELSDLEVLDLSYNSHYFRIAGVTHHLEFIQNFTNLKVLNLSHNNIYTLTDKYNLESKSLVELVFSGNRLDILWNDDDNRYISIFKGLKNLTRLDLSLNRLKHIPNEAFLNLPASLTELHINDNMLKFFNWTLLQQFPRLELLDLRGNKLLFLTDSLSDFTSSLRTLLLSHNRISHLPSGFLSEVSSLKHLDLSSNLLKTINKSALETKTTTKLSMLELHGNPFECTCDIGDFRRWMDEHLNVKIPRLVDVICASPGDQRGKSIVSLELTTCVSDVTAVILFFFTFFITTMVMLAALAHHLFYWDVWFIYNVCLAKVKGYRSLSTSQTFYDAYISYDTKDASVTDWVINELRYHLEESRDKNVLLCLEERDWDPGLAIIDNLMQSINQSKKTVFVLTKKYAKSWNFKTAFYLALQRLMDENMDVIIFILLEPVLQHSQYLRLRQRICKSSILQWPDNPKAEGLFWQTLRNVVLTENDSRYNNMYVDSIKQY
Procedure, shortened: as §1

human TLR9 = biological target: T3, human TLR9 (Homo sapiens, UniProt Q9NR96); test: TLR9 inhibition reporter assay (HEK-Blue cells, SEAP reporter, ODN2006 stimulation); settings: HEK-Blue cells overexpressing human TLR9, SEAP reporter, ODN2006 5 nM
T3 construct: host or cells: HEK-Blue cells (HEK293-derived reporter line)
T3 sequence (Q9NR96 26-1032): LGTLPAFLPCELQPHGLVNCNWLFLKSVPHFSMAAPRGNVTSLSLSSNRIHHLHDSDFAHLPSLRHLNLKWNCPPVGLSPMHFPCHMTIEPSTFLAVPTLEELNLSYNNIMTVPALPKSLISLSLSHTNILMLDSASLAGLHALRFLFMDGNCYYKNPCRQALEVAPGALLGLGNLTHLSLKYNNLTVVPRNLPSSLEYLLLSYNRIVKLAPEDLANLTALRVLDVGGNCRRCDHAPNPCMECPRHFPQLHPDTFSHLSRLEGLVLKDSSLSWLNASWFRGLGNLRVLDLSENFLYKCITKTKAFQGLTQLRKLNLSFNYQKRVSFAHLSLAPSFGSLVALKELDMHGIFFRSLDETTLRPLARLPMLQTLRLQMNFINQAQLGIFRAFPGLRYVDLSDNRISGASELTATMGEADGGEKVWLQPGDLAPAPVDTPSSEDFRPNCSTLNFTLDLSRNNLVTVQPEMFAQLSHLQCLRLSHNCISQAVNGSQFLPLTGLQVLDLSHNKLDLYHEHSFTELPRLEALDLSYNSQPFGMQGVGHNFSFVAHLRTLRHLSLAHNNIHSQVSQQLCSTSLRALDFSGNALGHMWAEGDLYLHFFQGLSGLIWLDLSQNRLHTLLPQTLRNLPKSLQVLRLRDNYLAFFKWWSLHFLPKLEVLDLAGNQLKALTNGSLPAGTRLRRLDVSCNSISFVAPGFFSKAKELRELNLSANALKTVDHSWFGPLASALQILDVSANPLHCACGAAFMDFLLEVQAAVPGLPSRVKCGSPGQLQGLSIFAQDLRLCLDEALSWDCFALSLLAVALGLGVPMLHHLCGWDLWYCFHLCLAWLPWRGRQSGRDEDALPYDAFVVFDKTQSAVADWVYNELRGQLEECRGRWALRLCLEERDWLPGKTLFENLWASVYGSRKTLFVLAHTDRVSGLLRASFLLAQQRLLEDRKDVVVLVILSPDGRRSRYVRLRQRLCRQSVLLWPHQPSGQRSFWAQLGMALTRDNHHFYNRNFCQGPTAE
Procedure, shortened: as §1

SMILES | IC50 (human TLR7) | IC50 (human TLR8) | IC50 (human TLR9)
CCc1c(-c2ccnc3[nH]ncc23)[nH]c2ccc(C3CCN(Cc4cc(-c5ccccc5)on4)CC3)cc12 [Example 897, 3-((4-(3-ethyl-2-(1H-pyrazolo[3,4-b]pyridin-4-yl)-1H-indol-5-yl)piperidin-1-yl)methyl)-5-phenylisoxazole] | 1000 to 50000 nM | 100 to 1000 nM | 1000 to 50000 nM
CC(C)c1c(-c2ccn3c(=O)[nH]nc3c2)[nH]c2ccc(C3CCNCC3)cc12 [Example 199, 7-(3-isopropyl-5-(piperidin-4-yl)-1H-indol-2-yl)-[1,2,4]triazolo[4,3-a]pyridin-3(2H)-one] | < 100 nM | < 100 nM | 100 to 1000 nM
Cc1cc(-c2[nH]c3ccc(C4CCN(C5COC5)CC4)cc3c2C(C)C)cc2cncn12 [Example 724, 7-(3-isopropyl-5-(1-(oxetan-3-yl)piperidin-4-yl)-1H-indol-2-yl)-5-methylimidazo[1,5-a]pyridine] | 100 to 1000 nM | 100 to 1000 nM | 1000 to 50000 nM
CCc1c(-c2ccc3nccn3c2)[nH]c2cc(F)c(C3CCNCC3)c(F)c12 [Example 257, 6-(3-ethyl-4,6-difluoro-5-(piperidin-4-yl)-1H-indol-2-yl)imidazo[1,2-a]pyridine] | < 100 nM | < 100 nM | < 100 nM
Cc1cc(-c2[nH]c3ccc(C4CCN(CC(=O)N(C)C)CC4)cc3c2C(C)C)nc2scnc12 [Example 407, 2-(4-(3-isopropyl-2-(7-methylthiazolo[5,4-b]pyridin-5-yl)-1H-indol-5-yl)piperidin-1-yl)-N,N-dimethylacetamide] | < 100 nM | < 100 nM | 1000 to 50000 nM
Cc1cc(-c2[nH]c3ccc(C4CCN(CC(=O)N(C)C)CC4)cc3c2C(C)C)cc2cn(C)nc12 [Example 379, 2-(4-(2-(2,7-dimethyl-2H-indazol-5-yl)-3-isopropyl-1H-indol-5-yl)piperidin-1-yl)-N,N-dimethylacetamide] | < 100 nM | < 100 nM | 1000 to 50000 nM
CC(C)c1c(-c2c[nH]c3cccnc23)[nH]c2ccc(C3CCNCC3)cc12 [Example 19, 3-(3-isopropyl-5-(piperidin-4-yl)-1H-indol-2-yl)-1H-pyrrolo[3,2-b]pyridine] | 100 to 1000 nM | 1000 to 50000 nM | 100 to 1000 nM
Cc1cc(-c2[nH]c3ccc(C4CCN(C(=O)CN(C)C)CC4)cc3c2C(C)C)cn2nncc12 [Example 467, 2-(dimethylamino)-1-(4-(3-isopropyl-2-(4-methyl-[1,2,3]triazolo[1,5-a]pyridin-6-yl)-1H-indol-5-yl)piperidin-1-yl)ethan-1-one] | 100 to 1000 nM | 1000 to 50000 nM | 1000 to 50000 nM
Cc1nc2cc(-c3[nH]c4ccc(C5CCNCC5)cc4c3C(C)C)ccn2n1 [Example 156, 7-(3-isopropyl-5-(piperidin-4-yl)-1H-indol-2-yl)-2-methyl-[1,2,4] triazolo[1,5-a]pyridine] | < 100 nM | 100 to 1000 nM | 100 to 1000 nM
CC(C)c1c(-c2cnc3c(cnn3C)c2)[nH]c2ccc(C3CCNCC3)cc12 [Example 96, 5-(3-isopropyl-5-(piperidin-4-yl)-1H-indol-2-yl)-1-methyl-1H-pyrazolo[3,4-b]pyridine] | < 100 nM | < 100 nM | 100 to 1000 nM

The next lines start with the values.

IC50 (human TLR7) | IC50 (human TLR8) | IC50 (human TLR9) | SMILES
1000 to 50000 nM | 100 to 1000 nM | 1000 to 50000 nM | Cc1nc2c(-c3[nH]c4ccc(C5CCN(C(=O)CN(C)C)CC5)cc4c3C(C)C)ccc(C)n2n1 [Example 515, 1-(4-(2-(2,5-dimethyl-[1,2,4]triazolo[1,5-a]pyridin-8-yl)-3-isopropyl-1H-indol-5-yl)piperidin-1-yl)-2-(dimethylamino)ethan-1-one]
100 to 1000 nM | 100 to 1000 nM | 1000 to 50000 nM | CC(C)c1c(-c2ccnc3c2ncn3C)[nH]c2ccc(C3CCNCC3)cc12 [Example 45, 7-(3-isopropyl-5-(piperidin-4-yl)-1H-indol-2-yl)-3-methyl-3H-imidazo[4,5-b]pyridine]
< 100 nM | < 100 nM | 100 to 1000 nM | CC(C)c1c(-c2ccnc3[nH]ncc23)[nH]c2ccc(C3CCN(CCN4CCCCCC4)CC3)cc12 [Example 660, 4-(5-(1-(2-(azepan-1-yl)ethyl)piperidin-4-yl)-3-isopropyl-1H-indol-2-yl)-1H-pyrazolo[3,4-b]pyridine]
1000 to 50000 nM | 1000 to 50000 nM | < 100 nM | Cc1c(-c2ncc3[nH]ccc3n2)[nH]c2ccc(C3CCN(C4CCN(C(C)C)CC4)CC3)cc12 [Example 808, 2-(5-(1′-isopropyl-[1,4′-bipiperidin]-4-yl)-3-methyl-1H-indol-2-yl)-5H-pyrrolo[3,2-d]pyrimidine]
100 to 1000 nM | < 100 nM | 100 to 1000 nM | CCc1ncc(CN2CCC(c3ccc4[nH]c(-c5ccnc6[nH]ncc56)c(CC)c4c3)CC2)[nH]1 [Example 915, 4-(3-ethyl-5-(1-((2-ethyl-1H-imidazol-5-yl)methyl)piperidin-4-yl)-1H-indol-2-yl)-1H-pyrazolo[3,4-b]pyridine]
